Here are results for 21 compounds from patent US7655808B2, “Leptomycin compounds” (priority 2004, dated 2010).

In one data set the test system is SKOV-3. Kind of data set: Inhibition of proliferation / cytotoxicity, SKOV-3. Format: cell-based. To be noted: SKOV-3 human ovary cancer cell line; read-out: Tumor Cell Line (IC50, nM) SKOV-3. The procedure: (§1) The biological activity of compounds of this invention was evaluated by measuring their inhibitory effect on the proliferation of various tumor cell lines. MCF-7, A549, and SKOV-3 are human breast, lung, and ovary cancer cell lines, respectively. NCI/ADR is a multi-drug resistant breast cancer cell line. CCRF-CEM and CCRF-CEM/PTX are human leukemia cell lines, the latter being a paclitaxel-resistant subline. LNCaP is a prostate cancer cell line.

The subject of the next data set is CCRF-CEM/PTX. Kind of data set: Inhibition of proliferation / cytotoxicity, CCRF-CEM/PTX. Format: cell-based. As to conditions: CCRF-CEM/PTX paclitaxel-resistant human leukemia subline; read-out: Tumor Cell Line (IC50, nM) CCRF-CEM/PTX. The procedure:
as §1

Another data set has as its system LNCaP. Kind of data set: Inhibition of proliferation / cytotoxicity, LNCaP. As to conditions: LNCaP prostate cancer cell line; read-out: Tumor Cell Line (IC50, nM) LNCaP. Format: cell-based. The procedure: as §1
In a further data set the test system is NCI/ADR. Kind of data set: Inhibition of proliferation / cytotoxicity, NCI/ADR. Format: cell-based. As to conditions: NCI/ADR multi-drug resistant breast cancer cell line; read-out: Tumor Cell Line (IC50, nM) NCI/ADR. As to the method:
as §1

The subject of another data set is MCF-7. Kind of data set: Inhibition of proliferation / cytotoxicity, MCF-7. Format: cell-based. As to conditions: MCF-7 human breast cancer cell line; read-out: Tumor Cell Line (IC50, nM) MCF-7. The procedure: as §1
The subject of a further data set is A549. Nature of the data set: Inhibition of proliferation / cytotoxicity, A549. Format: cell-based. To be noted: A549 human lung cancer cell line; read-out: Tumor Cell Line (IC50, nM) A549. The procedure: as §1
In the next data set the test system is CCRF-CEM. Kind of data set: Inhibition of proliferation / cytotoxicity, CCRF-CEM. Format: cell-based. As to conditions: CCRF-CEM human leukemia cell line; read-out: Tumor Cell Line (IC50, nM) CCRF-CEM. As to the method:
as §1

The conditions of data set [1]: Kudo et al., Exp. Cell Res. 1998; cited from earlier work.
A further data set has as its system K562 cells. Kind of data set: Cytotoxicity against Bcr-Abl positive K562 cells. Format: cell-based. To be noted: K562, Bcr-Abl positive CML cell line. The source says: Data was also obtained for the cytotoxicity of several compounds of this invention against K562, a Bcr-Abl positive CML cell line, as shown in Table 3 with comparative data for LMB included.
The subject of a further data set is MB 49 cells. Nature of the data set: Cytotoxicity against MB 49 murine bladder cancer cells. Format: cell-based. The source says:
Table 5 presents data on the cytotoxicity of LMB and selected compounds of this invention against MB 49 cells, a line of murine bladder cancer cells.

Data set [2] is described as follows: Mouse maximum tolerated dose, single dose intravenous. Format: in vivo. As to conditions: mice, single dose intravenous administration. As to the method:
The maximum tolerated dose (MTD) in mice, upon single dose intravenous administration was determined for a representative selection of compounds. The data are summarized in Table 4, with comparative data for LMB included.

As to `CCC(C=CC1OC(=O)C=CC1C)=CC(C)CC=CC(C)=CC(C)C(=O)C(C)C(O)C(C)CC(C)=CC(=O)NCCN` (stereo not shown) [Compound 15], the IC50 in the data set with SKOV-3 was 41 nM; with CCRF-CEM/PTX, 110 nM; in the data set on LNCaP it was 4.2 nM; in the data set on NCI/ADR it was 630 nM; in the data set with MCF-7 it was 4.6 nM; with A549, 15 nM. In the data set on CCRF-CEM, the IC50 stood at 17 nM.
Take `CCC(C=CC1OC(=O)C=CC1C)=CC(C)CC=CC(C)=CC(C)C(=O)C(C)C(O)C(C)CC(C)=CC(=O)NCCOc1ccccc1` (stereo not shown) [Compound 9]: the IC50 in the data set on SKOV-3 came to 4.3 nM; in the data set on CCRF-CEM/PTX, 2.5 nM; in the data set with NCI/ADR it was 37 nM; in the data set with MCF-7 it was 0.64 nM; in the data set with A549 it was 2.8 nM; in the data set on CCRF-CEM it was 1.9 nM.
On to `CCC(C=CC1OC(=O)C=CC1C)=CC(C)CC=CC(C)=CC(C)C(=O)C(C)C(O)C(C)CC(C)=CC(=O)NCCNC(=O)OC(C)(C)C` (stereo not shown) [Compound 6], for which the IC50 with SKOV-3 is 1.2 nM; in the data set with CCRF-CEM/PTX, 2.3 nM; with NCI/ADR it was 34 nM; in the data set with MCF-7, 0.32 nM; in the data set with A549 it was 1.3 nM; in the data set on CCRF-CEM, 1.1 nM.
Consider `CCC(C=CC1OC(=O)C=CC1C)=CC(C)CC=CC(C)=CC(C)C(=O)C(C)C(O)C(C)CC(C)=CC(=O)NCCCCNC(=O)OC(C)(C)C` (stereo not shown) [Compound 14], for which the IC50 in the data set with SKOV-3 was 2.5 nM; in the data set with CCRF-CEM/PTX it was 2.4 nM; with NCI/ADR, 33 nM; in the data set on MCF-7, 0.3 nM; in the data set with A549, 1.6 nM; in the data set with CCRF-CEM it was 1.7 nM.
As to `CCC(C=CC1OC(=O)C=CC1C)=CC(C)CC=CC(C)=CC(C)C(=O)C(C)C(O)C(C)CC(C)=CC(=O)NCc1c(C)c(=O)n2c(=O)c(C)c(C)n12` (stereo not shown) [Compound 18], the IC50 in the data set with SKOV-3 turned out to be 15 nM; in the data set on NCI/ADR, 380 nM; with MCF-7, 3.4 nM; in the data set on A549, 4.3 nM.
As to `CCC(C=CC1OC(=O)C=CC1C)=CC(C)CC=CC(C)=CC(C)C(=O)C(C)C(O)C(C)CC(C)=CC(=O)NCc1ccc(-c2ccccc2)cc1` (stereo not shown) [Compound 3], the IC50 in the data set with SKOV-3 was 13 nM; with CCRF-CEM/PTX, 17 nM; with NCI/ADR, 150 nM; in the data set on MCF-7, 3.7 nM; with A549 it was 13 nM; in the data set on CCRF-CEM, 3.5 nM.
For the compound `CCC(=C/[C@H](C)C/C=C/C(C)=C/[C@@H](C)C(=O)[C@@H](C)[C@H](O)[C@@H](C)C/C(C)=C/C(=O)NCCCCCCNC(=O)CCCC[C@H]1SC[C@@H]2NC(=O)N[C@@H]21)/C=C/[C@@H]1OC(=O)C=C[C@@H]1C` [biotinylated LMB], the “activity of LMB analog” value in data set [1] is listed as “active”.
Turning to `CCC(C=CC1OC(=O)C=CC1C)=CC(C)CC=CC(C)=CC(C)C(=O)C(C)C(O)C(C)CC(C)=CC(=O)NCCc1cccnc1` (stereo not shown) [Compound 4], the IC50 with SKOV-3 came to 2.8 nM; in the data set on K562 cells, 1.7 nM; in the data set on CCRF-CEM/PTX, 1.4 nM; with LNCaP it was 0.5 nM; in the data set with NCI/ADR, 19 nM; in the data set on MCF-7, 0.32 nM. The IC50 with MB 49 cells was found to be 5.9 nM; with A549, 0.84 nM; in the data set with CCRF-CEM, 1 nM. Also, the “Mouse MTD” value in data set [2] worked out at 40 mg/kg.
Consider `CCC(C=CC1OC(=O)C=CC1C)=CC(C)CC=CC(C)=CC(C)C(=O)C(C)C(O)C(C)CC(C)=CC(=O)Nc1ccc2cn[nH]c2c1` (stereo not shown) [Compound 5], for which the IC50 in the data set with SKOV-3 was found to be 5.9 nM; in the data set on CCRF-CEM/PTX, 9 nM; with NCI/ADR it was 34 nM; with MCF-7 it was 2 nM; in the data set with A549, 3.3 nM; in the data set on CCRF-CEM it was 3.1 nM.
On to `CCC(=C/[C@H](C)C/C=C/C(C)=C/[C@@H](C)C(=O)[C@@H](C)[C@H](O)[C@@H](C)C/C(C)=C/C(=O)OC)/C=C/[C@@H]1OC(=O)CC(C[N+](=O)[O-])[C@@H]1C` (stereo partly shown) [nitromethyl valerolactone LMB analog], for which the “activity of LMB analog” value in data set [1] was “inactive”.
Turning to `CCC(C=CC1OC(=O)C=CC1C)=CC(C)CC=CC(C)=CC(C)C(=O)C(C)C(O)C(C)CC(C)=CC(=O)NCCNC(C)C` (stereo not shown) [Compound 17], the IC50 with SKOV-3 came out at 44 nM; in the data set on NCI/ADR, 740 nM; with MCF-7, 3.5 nM; in the data set with A549, 4.7 nM.
Take `CCC(C=CC1OC(=O)C=CC1C)=CC(C)CC=CC(C)=CC(C)C(=O)C(C)C(O)C(C)CC(C)=CC(=O)NCCO` (stereo not shown) [Compound 2]: the IC50 turned out to be 2.6 nM in the data set on SKOV-3; 2.8 nM in the data set with CCRF-CEM/PTX; 27 nM in the data set with NCI/ADR; 0.78 nM in the data set on MCF-7; 2.2 nM with A549; 2.4 nM in the data set on CCRF-CEM.
As to `CCC(C=CC1OC(=O)C=CC1C)=CC(C)CC=CC(C)=CC(C)C(=O)C(C)C(O)C(C)CC(C)=CC(=O)NCC(=O)O` (stereo not shown) [Compound 21], the IC50 in the data set with SKOV-3 is 57 nM; in the data set with LNCaP, 28.6 nM; in the data set on NCI/ADR, 260 nM; with MCF-7, 31 nM; with A549, 37 nM.
The matching figures for `CCC(C=CC1OC(=O)C=CC1C)=CC(C)CC=CC(C)=CC(C)C(=O)C(C)C(O)C(C)CC(C)=CC(=O)NCCCCCNC(=O)COc1ccc(C2=NC(=Cc3ccc(-c4cccs4)n3B(F)F)C=C2)cc1` (stereo not shown) [Compound 20]: 570 nM, 87.4 nM, 1000 nM, 210 nM and 250 nM.
For the compound `CCC(C=CC1OC(=O)C=CC1C)=CC(C)CC=CC(C)=CC(C)C(=O)C(C)C(O)C(C)CC(C)=CC(=O)NC` (stereo not shown) [Compound 1], the IC50 in the data set on SKOV-3 is 1.7 nM; with CCRF-CEM/PTX, 0.46 nM; in the data set on LNCaP, 0.8 nM; in the data set with NCI/ADR it was 2.1 nM; in the data set with MCF-7 it was 0.27 nM; in the data set with A549, 0.36 nM. Further, in the data set with CCRF-CEM, the IC50 was 0.69 nM. In addition, the “Mouse MTD” value in data set [2] came to 5 mg/kg.
On to `CCC(C=CC1OC(=O)C=CC1C)=CC(C)CC=CC(C)=CC(C)C(=O)C(C)C(O)C(C)CC(C)=CC(=O)NCCCN1CCOCC1` (stereo not shown) [Compound 8], for which the IC50 with SKOV-3 was 2.5 nM; in the data set with K562 cells it was 1 nM; in the data set with CCRF-CEM/PTX it was 2.1 nM; with LNCaP, 0.5 nM; in the data set on NCI/ADR, 39 nM; in the data set on MCF-7 it was 0.3 nM. Also, the IC50 in the data set with MB 49 cells was determined as 6.8 nM; in the data set on A549, 0.84 nM; in the data set with CCRF-CEM it was 0.98 nM. Further, the “Mouse MTD” value in [2] came out at 20 mg/kg.
Consider `CCC(C=CC1OC(=O)C=CC1C)=CC(C)CC=CC(C)=CC(C)C(=O)C(C)C(O)C(C)CC(C)=CC(=O)NCCNC` (stereo not shown) [Compound 16], for which the IC50 worked out at 9.7 nM in the data set on SKOV-3; 29 nM in the data set with CCRF-CEM/PTX; 27.2 nM with LNCaP; 460 nM in the data set on NCI/ADR; 3.2 nM in the data set on MCF-7; 3.5 nM with A549. Besides, the IC50 with CCRF-CEM came out at 1.8 nM.
As to `CCC(C=CC1OC(=O)C=CC1C)=CC(C)CC=CC(C)=CC(C)C(=O)C(C)C(O)C(C)CC(C)=CC(=O)NCC(=O)OC` (stereo not shown) [Compound 10], the IC50 turned out to be 2.7 nM in the data set on SKOV-3; 0.5 nM in the data set on CCRF-CEM/PTX; 0.8 nM in the data set on LNCaP; 4.6 nM with NCI/ADR; 0.3 nM in the data set with MCF-7; 1.4 nM in the data set on A549. Moreover, the IC50 in the data set with CCRF-CEM came out at 0.63 nM.
For the compound `CCC(C=CC1OC(=O)C=CC1C)=CC(C)CC=CC(C)=CC(C)C(=O)C(C)C(O)C(C)CC(C)=CC(=O)NCCC1OCCO1` (stereo not shown) [Compound 11], the IC50 was determined as 1.5 nM in the data set on SKOV-3; 0.47 nM in the data set on CCRF-CEM/PTX; 5.8 nM in the data set on NCI/ADR; 0.3 nM with MCF-7; 0.67 nM in the data set on A549; 0.43 nM with CCRF-CEM.
As for `CCC(C=CC1OC(=O)C=CC1C)=CC(C)CC=CC(C)=CC(C)C(=O)C(C)C(O)C(C)CC(C)=CC(=O)NCCNC(=O)CCC1=NC(=Cc2c(C)cc(C)n2B(F)F)C=C1` (stereo not shown) [Compound 19], the IC50 came to 20 nM in the data set with SKOV-3; 1.6 nM in the data set with LNCaP; 300 nM with NCI/ADR; 3.4 nM in the data set on MCF-7; 4.6 nM in the data set with A549.
As for `CCC(C=CC1OC(=O)C=CC1C)=CC(C)CC=CC(C)=CC(C)C(=O)C(C)C(O)C(C)CC(C)=CC(=O)NCCN(C)C` (stereo not shown) [Compound 7], the IC50 was 2.8 nM in the data set with SKOV-3; 3.1 nM with CCRF-CEM/PTX; 0.7 nM with LNCaP; 110 nM with NCI/ADR; 0.61 nM with MCF-7; 2.2 nM in the data set on A549. For the same compound, the IC50 in the data set on CCRF-CEM was 1.4 nM. Moreover, the “Mouse MTD” value in [2] stood at 15 mg/kg.
